Laboratory results taken from US5190959A, “Piperidine compounds which have useful pharmaceutical activity” (Kaken Pharmaceutical Co. Ltd., priority 1991, dated 1993).
Structures can show the parent of a compound that is named as a salt.

What was measured:
isolated heart = assay: Langendorff perfused isolated heart: perfusion pressure, contractive force, heart rate; set-up: species or system Wistar male rat; details: for Contractive force (Δ %) / Heart rate (Δ %) / Perfusion pressure (Δ %): means value ± S.D., n = 3-4
Method: Hearts were isolated from Std; Wistar male rats weighing 200-300 g (9-10 weeks old). The hearts were perfused using Langendorff's apparatus at a flow rate of 8 ml/min. As a perfusate, Krebs-Henseleit-bicarbonate solution (37° C., pH 7.4) containing 11 mM glucose, oxygenated with a mixed gas of 95% O2 and 5% CO2 was used. The heart was preloaded with an initial resting tension of 2.0 g and paced at 200-300 beats min^-1. After the hearts were allowed to be stable for 30-60 minutes, 0.1 ml of a solution of each test compound in 10% DMSO was added thereto to be a concentration of 0.1, 1.0, 10 or 100 μg of each compound per heart.
Myocardial contractile force was isometrically measured by means of a force-displacement transducer (Type: TB-612T, made by Nihon Kohden Kogyo KK) connected to the apex of the heart through a thread. Coronary perfusion pressure was monitored by an electric manometer (Type: MPU-0.5, made by Nihon Kohden Kogyo KK) connected to a side branch of the aortic cannule.
[formula] A: value before adding a test compound B: value after adding a test compound

[1] = system: anaphylactic histamine release from lung fragments; assay: Inhibition of anaphylactic histamine release (passively sensitized lung fragments, antigen challenge); format: cell-based, Hartley male guinea pig; details: Cavia porcellus, 0.25 h; guinea pig lung fragments; DNP-egg albumin 0.3 μg/ml; compound added 10 min before antigen challenge; 37° C.; read-out: 25%-inhibitory conc. (anaphylactic histamine release)
Method: Inhibition of anaphylactic histamine release
Hartley male guinea pigs weighing about 450 g which were passively sensitized with an anti-DNP-egg albumin guinea pig serum were killed with a thiopentbarbital anesthetia. Their lungs were perfused by way of the pulmonary artery with a Tyrode's solution. The lungs were removed and fragmented. A definite weight of 100 mg lung fragments, which was distributed into individual tubes and suspended in 1 ml of Tyrode's solution, was challenged with the antigen (DNP-egg albumin, final concentration: 0.3 μg/ml) at 37° C. for 15 min. The test compounds obtained in Example, which were dissolved or suspended in Tyrode's solution, were added 10 min before antigen challenge. The reaction was stopped by immersing in ice cold water, and then centrifuged. The amount of histamine in the supernatant fluid was measured by using fluoremetric method according to Shore et al.
A: amount of histamine released by the antigen stimulation in the presence of a compound of the present invention
B: amount of histamine released spontaneously
C: amount of histamine released by the antigen stimulation.

[2] = target: T1, histamine-induced constriction of tracheal smooth muscle (Cavia porcellus, UniProt P31389); assay: Antihistaminic activity (isolated tracheal smooth muscle chain strips, histamine constriction); format: cell-based, Hartley male guinea pig; details: guinea pig tracheal strip; compound 5 min prior to histamine; Van Rossum; read-out: pA2 (converted)
T1 construct: Isolated tracheal smooth muscle chain strips were prepared by a usual method; from tissue; host or cells: isolated tracheal smooth muscle chain strips of Hartley male guinea pigs
Method: Hartley male guinea pigs weighing 500-600 g were used. Isolated tracheal smooth muscle chain strips were prepared by a usual method and suspended in 2 ml organ bath of Tyrode's solution aerated with 95% O2.5 % CO2 at 37° C. Each strip was attached to an isotonic transducer (made by Nihon Koden Kogyo KK) with a load of 0.5 g. After almost constant contraction, histamine was added cumulatively, until maximum constriction was obtained. The constriction of tracheal strip was recorded by Servocorder (made by Giraphtec KK). The strip was washed with Tyrode's solution and allowed to stabilize. Test compound was to the bath 5 min prior to the addition of histamine and the response curve to the histamine was repeated. The pA2 values were calculated using the techniques of Van Rossum.

[3] = Acute oral toxicity (LD50); details: mouse, in vivo, mice 22-27 g, ddY, male, 5 weeks
Method: The LD50 of the compounds obtained in Examples 1, 34, 37, 40 and 44 were more than 500 mg/kg when these compounds were given orally to mice weighing 22-27 g (ddY, male, 5 weeks).

[4] = 1 μg/heart, ** p <0.01 vs control
[5] = 10 μg/heart, ** p <0.01 vs control
[6] = 100 μg/heart, ** p <0.01 vs control

T1 sequence (P31389 whole entry): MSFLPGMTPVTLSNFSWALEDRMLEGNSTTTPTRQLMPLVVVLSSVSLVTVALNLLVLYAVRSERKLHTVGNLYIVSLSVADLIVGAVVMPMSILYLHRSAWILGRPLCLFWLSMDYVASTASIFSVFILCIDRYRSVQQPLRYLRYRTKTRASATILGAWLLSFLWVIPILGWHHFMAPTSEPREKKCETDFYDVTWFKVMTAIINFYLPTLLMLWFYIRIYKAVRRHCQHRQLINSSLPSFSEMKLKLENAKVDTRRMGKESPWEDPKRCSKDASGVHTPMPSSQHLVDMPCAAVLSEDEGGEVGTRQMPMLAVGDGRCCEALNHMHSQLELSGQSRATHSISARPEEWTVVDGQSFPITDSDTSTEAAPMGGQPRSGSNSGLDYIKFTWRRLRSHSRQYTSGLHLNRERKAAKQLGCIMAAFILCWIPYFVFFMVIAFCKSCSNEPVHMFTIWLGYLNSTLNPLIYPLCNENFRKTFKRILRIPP

Row | Structure (SMILES) | Contractive force (Δ %) (isolated heart; 0.1 μg/heart) [%] | Heart rate (Δ %) (isolated heart; 0.1 μg/heart) [%] | Heart rate (Δ %) (isolated heart; 1 μg/heart) [%] | Contractive force (Δ %) (isolated heart; [4]) [%] | Perfusion pressure (Δ %) (isolated heart; [4]) [%] | Contractive force (Δ %) (isolated heart; [5]) [%] | Heart rate (Δ %) (isolated heart; [5]) [%] | Perfusion pressure (Δ %) (isolated heart; [5]) [%] | Contractive force (Δ %) (isolated heart; [6]) [%] | Heart rate (Δ %) (isolated heart; [6]) [%] | Perfusion pressure (Δ %) (isolated heart; [6]) [%] | IC25 [1] [nM] | Kb [2] [nM] | LD50 [3] [mg/kg] | also measured
1 | CS(=O)(=O)Nc1ccccc1OCCCN1CCC(OC(c2ccc(Cl)cc2)c2ccccn2)CC1 (stereo not drawn) [Example 33, 4-[(4-chlorophenyl)-2-pyridylmethoxy]-1-[3-(2-methanesulfonylaminophenoxy)propyl]piperidine] | 5.0 ± 4.3 | -1.2 ± 2.1 | -1.9 ± 1.8 | 13.3 ± 1.9 | -19.2 ± 2.2 | 16.0 ± 4.5 | -4.6 ± 4.7 | -39.1 ± 5.4 | -46.2 ± 13.4 | -17.2 ± 10.1 | -40.1 ± 5.2 | – | – | – | Perfusion pressure (Δ %) (isolated heart; 0.1 μg/heart): -7.0 ± 6.1%
2 | CS(=O)(=O)Nc1ccccc1OCCCN1CCC(OC(c2ccccc2)c2cccnc2)CC1 (stereo not drawn) [Example 34 (fumarate)] | – | – | – | – | – | – | – | – | – | – | – | 1000 | 0.126 | – | –
3 | O=c1[nH]c2ccccc2n1CCCN1CCN(C(c2ccccc2)c2ccccc2)CC1 [Oxatomide, reference compound] | – | – | – | – | – | – | – | – | – | – | – | 100000 | 1.26 | – | –
4 | CS(=O)(=O)Nc1ccccc1OCCCN1CCC(OC(c2ccccc2)c2cccnc2)CC1 (stereo not drawn) [Example 34, 4-(phenyl-3-pyridylmethoxy)-1-[3-(2-methanesulfonylaminophenoxy)propyl]piperidine] | – | – | – | – | – | – | – | – | – | – | – | – | – | > 500 | –
5 | CC(C)c1ccc2oc3nc(N)c(C(=O)O)cc3c(=O)c2c1 [Amlexanox, reference compound] | – | – | – | – | – | – | – | – | – | – | – | 30000 | – | – | –
6 | CS(=O)(=O)Nc1ccccc1OCCCN1CCC(OC(c2ccsc2)c2ccsc2)CC1 [Example 44 (fumarate)] | – | – | – | – | – | – | – | – | – | – | – | 30 | 2.51 | – | –
7 | CC(CCOc1ccccc1NS(C)(=O)=O)N1CCC(OC(c2ccccc2)c2cccs2)CC1 (stereo not drawn) [Example 37, 4-(phenyl-2-thienylmethoxy)-1-[3-(2-methanesulfonylaminophenoxy)-1-methylpropyl]piperidine] | – | – | – | – | – | – | – | – | – | – | – | 100 | 3.98 | > 500 | –
8 | CS(=O)(=O)Nc1ccccc1OCCCN1CCC(OC(c2ccccc2)c2ccccc2)CC1 [Example 1, 4-diphenylmethoxy-1-[3-(2-methanesulfonylaminophenoxy)propyl]piperidine] | 2.0 ± 3.6 | 0.7 ± 1.2 | -0.7 ± 1.2 | 11.9 ± 2.4 | -24.8 ± 3.0 | 11.8 ± 2.3 | -0.7 ± 1.2 | -42.9 ± 3.2 | -25.0 ± 6.8 | -16.6 ± 15.6 | -49.0 ± 4.8 | 1000 | 2 | > 500 | Perfusion pressure (Δ %) (isolated heart; 0.1 μg/heart): -8.39 ± 3.4%
9 | CS(=O)(=O)Nc1ccccc1OC/C=C\CN1CCC(OC(c2ccccc2)c2cccs2)CC1 (stereo not drawn) [Example 40, 4-(phenyl-2-thienylmethoxy)-1-[4-(2-methanesulfonylaminophenoxy)-2(Z)-butenyl]piperidine] | – | – | – | – | – | – | – | – | – | – | – | 100 | 6.31 | > 500 | –
10 | CS(=O)(=O)Nc1ccccc1OCCCN1CCC(OC(c2ccsc2)c2ccsc2)CC1 [Example 44, 4-di(3-thienyl)methoxy-1-[3-(2-methanesulfonylaminophenoxy)propyl]piperidine] | 8.8 ± 2.5 | -5.7 ± 1.4 | -3.6 ± 4.1 | 19.1 ± 5.7 | -28.9 ± 3.0 | 16.2 ± 11.3 | -6.3 ± 1.5 | -47.9 ± 4.8 | -46.3 ± 19.4 | -59.9 ± 11.1 | -55.8 ± 3.5 | – | – | > 500 | Perfusion pressure (Δ %) (isolated heart; 0.1 μg/heart): -6.0 ± 13.7%
11 | CS(=O)(=O)Nc1ccccc1OCCCN1CCC(OC(c2ccccc2)c2cccs2)CC1 (stereo not drawn) [Example 36 (fumarate)] | – | – | – | – | – | – | – | – | – | – | – | 100 | 2.51 | – | –
12 | COc1ccc([C@@H]2Sc3ccccc3N(CCN(C)C)C(=O)[C@@H]2OC(C)=O)cc1 [Diltiazem hydrochloride, reference compound] | 3.5 ± 6.9 | -2.7 ± 1.8 | -3.5 ± 2.4 | 7.0 ± 16.1 | -32.1 ± 6.9 | -67.1 ± 17.5 | -25.9 ± 30.3 | -47.1 ± 1.4 | -86.5 ± 7.0 | -71.4 ± 11.9 | -48.8 ± 1.4 | – | – | – | contractive force (in words) (isolated heart; 10 μg/heart): significant lowerings; heart rates (in words) (isolated heart; 10 μg/heart): significant lowerings
